Laboratory results published in the OPERA property sets (Mansouri et al. 2018).
Peptide text beside a SMILES is read from it.

For `Nc1cccc2cccnc12`, the logP was 1.79.
With `NC(=O)c1ccc(C(O)C(CO)NC(=O)C(Cl)Cl)cc1` (stereo unspecified) the logP was -0.48.
Work on `CCc1cc([N+](=O)[O-])cc([N+](=O)[O-])c1O` yielded a logP of 2.67.
With `Cn1cc2ccc([N+](=O)[O-])cc2n1` the logP was 1.76.
`CS(=O)(=O)c1cccc([N+](=O)[O-])c1` gave a logP of 0.5.
`CCCCC1(c2ccncc2)CCC(=O)NC1=O` (stereo unspecified) showed a logP of 1.68.
`CC(=O)NC(C)C(=O)NC(C)C(=O)NC(C)C(=O)NC(C)(C)C` (stereo unspecified) showed a logP of -0.51.
Compound `CCOP(=S)(OCC)SCn1c(=O)oc2cc(Cl)ccc21` has a logP of 4.38.
`N#Cc1ccc2ccccc2n1` showed a logP of 1.6.
For `COc1cccc(OC(=O)N(C)C)c1`, the logP was 1.6.
In the case of `O=[N+]([O-])c1ccc(C=Cc2ncc[nH]2)o1`, the logP is reported as 1.32.
Work on `OCC=CCO` yielded a logP of -0.81.
Compound `[O-][n+]1cccc2ccccc21` has a logP of 0.36.
For `COP(=S)(OC)Oc1ccc(Cl)cc1C#N`, the logP was 3.41.
With `CCc1ccc(O)cc1` the logP was 2.58.
For `CCCCCCCC(=O)O`, the logP was 3.05.
Compound `CC(=O)Oc1ccc(N)cc1` has a logP of 0.45.
`Cc1ccccc1Cl` gave a logP of 3.42.
Work on `NC(=O)Cc1cccs1` yielded a logP of 0.33.
`CC(C)=CC1C(C(=O)OCN2C(=O)C3=C(CCCC3)C2=O)C1(C)C` (stereo unspecified) gave a logP of 4.73.
`CC(C)(c1ccc(O)cc1)c1ccc(O)cc1` gave a logP of 3.32.
For `O=C(Cc1ccccc1)NC(CO)C(O)c1ccc([N+](=O)[O-])cc1` (stereo unspecified), the logP was 1.52.
With `c1cnccn1` the logP was -0.26.
Compound `CCCCCC(C)(C)c1ccc(C2CCCC(O)C2)c(O)c1` (stereo unspecified) has a logP of 5.97.
`CC(C)OCCO` showed a logP of 0.05.
`CCCC(C)C1(CC)C(=O)N=C(O)NC1=O` (stereo unspecified) showed a logP of 2.1.
`CCCCNC(=O)n1c(NC(=O)OC)nc2ccccc21` showed a logP of 2.12.
Work on `Cc1c(I)c(=O)n(-c2ccccc2)n1C` yielded a logP of 1.27.
`O=C(Oc1ccccc1)Oc1ccccc1` showed a logP of 3.28.
For `CN(C)CCCCc1cccnc1`, the logP was 1.49.
Compound `Clc1ccc(Cl)c(-c2cc(Cl)ccc2Cl)c1` has a logP of 6.09.
`NN1CCCCC1` gave a logP of -0.28.
`CN(C)C(=O)Nc1ccc([N+](=O)[O-])cc1` gave a logP of 1.51.
In the case of `NC(=O)c1ccc(N)cc1`, the logP is reported as -0.41.
In the case of `C#CC(C)OC(=O)Nc1ccc(OCC)c(OCC)c1` (stereo unspecified), the logP is reported as 2.68.
For `CN(C)C(=O)C(C(=O)N(C)C)C(=O)N(C)C`, the logP was -3.09.
Compound `ClC(Cl)C(Cl)(Cl)Cl` has a logP of 3.22.
`CC1OC(OC2C(O)CC(OC3C(O)CC(OC4CCC5(C)C(CCC6C5CCC5(C)C(C7COC(=O)C7)CCC65O)C4)OC3C)OC2C)CC(O)C1O` (stereo unspecified) gave a logP of 2.9.
For `O=[N+]([O-])c1ccccc1CO`, the logP was 1.24.
With `Oc1cccc(Cl)c1Cl` the logP was 2.84.
Compound `Clc1ccc2ccccc2c1Cl` has a logP of 4.42.
For `COP(=S)(OC)Oc1cc(C)c([N+](=O)[O-])c(C)c1`, the logP was 3.89.
For `Cc1ccc(OC(=O)c2ccc(N)cc2O)cc1`, the logP was 3.38.
In the case of `Cc1cccc(C)c1[N+](=O)[O-]`, the logP is reported as 2.95.
In the case of `CCC(=O)OC1(C(C)=O)C(C)CC2C3CCC4=CC(=O)C=CC4(C)C3(F)C(=O)CC21C` (stereo unspecified), the logP is reported as 3.09.
Compound `CCCN(CCC)c1c([N+](=O)[O-])cc(C(F)(F)F)cc1[N+](=O)[O-]` has a logP of 5.34.
With `Cc1ccc(C(=O)O)c(O)c1` the logP was 2.99.
`O=C(O)c1ccccc1S` showed a logP of 2.39.
`CN=C(O)Oc1cccc(C)c1` gave a logP of 1.7.
`c1cc2snnc2c2c1CCNC2` showed a logP of 1.35.
With `CC/C(=C(/CC)c1ccc(O)cc1)c1ccc(O)cc1` the logP was 5.07.
In the case of `CC(=O)N[C@@H](CCC(N)=O)C(=O)N[C@@H](Cc1ccccc1)C(N)=O` (Ac-Gln-Phe-NH2), the logP is reported as -1.14.
`CC(C)c1ccc(OCC(=O)O)cc1` showed a logP of 2.69.
`CCCCOCC` showed a logP of 2.03.
`O=[N+]([O-])C=Cc1ccccc1` gave a logP of 2.11.
`CC(=O)Oc1cccc2cccnc12` gave a logP of 2.03.
In the case of `CCCCCOC(=O)c1ccc(N)cc1`, the logP is reported as 3.48.
Work on `CC1CC2OC(=O)C3(C)C2C(OC3(C)O)C2(C)C(=O)C=CC12` (stereo unspecified) yielded a logP of 0.3.
`Cc1ccc(NC2=NCCN2)c(Cl)c1` showed a logP of 1.8.
Compound `O=C(O)COc1cccc(NC(=O)c2ccccc2)c1` has a logP of 1.99.
For `CC(F)F`, the logP was 0.75.
With `NC(Cc1c[nH]c2ccc(F)cc12)C(=O)O` (stereo unspecified) the logP was -0.71.
For `Oc1ccc2ccccc2c1`, the logP was 2.7.
`CCCCC[C@H](O)/C=C/[C@H]1[C@H](O)CC(=O)[C@@H]1C/C=C\CCCC(=O)O` showed a logP of 2.82.
Compound `Cc1ccc(S(I)=C(N(C)C)N(C)C)cc1Cl` (stereo unspecified) has a logP of 0.45.
Compound `C=C(Br)CC1(C(C)C)C(=O)NC(=O)NC1=O` has a logP of 1.47.
`CC(C)(C)N` showed a logP of 0.4.
With `c1cnc2[nH]ccc2c1` the logP was 1.82.
In the case of `CC[C@H](C)[C@H](NC(C)=O)C(=O)N[C@@H](C)C(=O)N[C@H](C(N)=O)C(C)C`, the logP is reported as -0.21.
Compound `NC(Cc1ccc2ccccc2c1)C(=O)O` (stereo unspecified) has a logP of -0.15.
`FC(F)(F)c1ccc2cccnc2c1` gave a logP of 3.02.
Work on `CNc1nc(-c2ccccc2)c2ccccc2n1` yielded a logP of 3.58.
With `CN(C)C(=O)c1ccco1` the logP was 0.41.
With `NC(=O)CI` the logP was -0.19.
Compound `CNC(=O)Oc1cccc(Br)c1` has a logP of 2.25.
Work on `CSCS(=O)CC(C)NC(=O)C=Cc1c(C)[nH]c(=O)[nH]c1=O` (stereo unspecified) yielded a logP of -0.7.
With `CC(=O)ONc1ccnc2ccccc12` the logP was 0.97.
With `O=NN(CCCl)C(=O)NC1CCCCCCCCCCC1` the logP was 5.64.
For `Cc1cc(C)ncn1`, the logP was 0.62.
Work on `NC(=O)Nc1ccc(C(O)C(CO)NC(=O)C(Cl)Cl)cc1` (stereo unspecified) yielded a logP of -0.6.
Compound `CCn1cc(C(=O)O)c(=O)c2cnc(N3CCNCC3)nc21` has a logP of -2.15.
